# Measured values from patent US20080076751A1, “Azetidinone Derivatives and Methods of Use Thereof” (priority 2006, published 2008).
# Assays:
# [1] = target: T1, human NPC1L1 (Homo sapiens, UniProt Q9UHC9); assay: NPC1L1 binding assay (BODIPY-labeled glucuronidated ezetimibe competition), human; conditions: HEK-293 cells expressing human NPC1L1, 4 hours at 37° C.
# T1 construct: expressed in transfected cells; host or cells: HEK-293 (geneticin selection)
# T1 sequence (Q9UHC9 22-1359): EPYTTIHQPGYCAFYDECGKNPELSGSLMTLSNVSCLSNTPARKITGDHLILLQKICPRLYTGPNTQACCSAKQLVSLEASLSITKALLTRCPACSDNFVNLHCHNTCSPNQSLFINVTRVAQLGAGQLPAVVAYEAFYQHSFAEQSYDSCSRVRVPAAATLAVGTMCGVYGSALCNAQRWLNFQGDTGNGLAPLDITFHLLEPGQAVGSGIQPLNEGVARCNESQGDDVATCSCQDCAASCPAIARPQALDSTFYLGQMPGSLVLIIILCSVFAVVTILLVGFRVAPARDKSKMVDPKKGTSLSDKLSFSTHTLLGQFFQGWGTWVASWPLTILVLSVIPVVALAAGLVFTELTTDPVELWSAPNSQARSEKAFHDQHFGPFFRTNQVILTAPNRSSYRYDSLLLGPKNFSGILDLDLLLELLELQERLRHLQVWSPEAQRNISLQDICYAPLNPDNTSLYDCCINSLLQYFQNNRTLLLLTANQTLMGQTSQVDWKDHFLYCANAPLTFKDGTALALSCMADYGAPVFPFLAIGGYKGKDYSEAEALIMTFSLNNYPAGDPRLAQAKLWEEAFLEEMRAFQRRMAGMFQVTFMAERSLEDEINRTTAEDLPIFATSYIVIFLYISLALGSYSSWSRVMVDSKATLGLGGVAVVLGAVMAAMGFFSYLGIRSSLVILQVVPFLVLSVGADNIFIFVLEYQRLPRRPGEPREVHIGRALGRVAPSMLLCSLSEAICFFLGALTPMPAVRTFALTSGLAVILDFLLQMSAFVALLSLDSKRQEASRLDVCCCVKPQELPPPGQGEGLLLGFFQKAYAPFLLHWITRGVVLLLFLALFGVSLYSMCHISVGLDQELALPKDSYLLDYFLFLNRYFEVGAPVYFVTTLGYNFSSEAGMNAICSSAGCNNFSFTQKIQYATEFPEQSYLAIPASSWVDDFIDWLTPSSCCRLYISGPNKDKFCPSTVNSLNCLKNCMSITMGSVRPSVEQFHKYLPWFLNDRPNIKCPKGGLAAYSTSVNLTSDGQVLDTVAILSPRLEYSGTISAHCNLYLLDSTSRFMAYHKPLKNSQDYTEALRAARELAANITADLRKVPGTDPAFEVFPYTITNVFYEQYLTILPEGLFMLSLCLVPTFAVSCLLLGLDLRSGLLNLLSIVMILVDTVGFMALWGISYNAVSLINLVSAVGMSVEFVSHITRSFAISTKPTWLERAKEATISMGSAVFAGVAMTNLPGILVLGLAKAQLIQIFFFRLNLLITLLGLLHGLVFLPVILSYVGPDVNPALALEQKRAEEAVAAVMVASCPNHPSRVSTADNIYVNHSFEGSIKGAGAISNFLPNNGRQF
# Method: HEK-293 cells expressing human NPC1L1 were plated into 384-well black/clear plates (BD Biosciences, Bedford Mass.) for binding experiments the following day. Cell growth media (DMEM, 10% fetal calf serum, 1 mg/mL geneticin, 100 Units/mL penicillin) was aspirated. Cell growth media ([…]) containing 250 nM BODIPY-labeled glucuronidated ezetimibe was added to each well. Cell growth media ([…]) containing the indicated concentration of compound was then added to the wells. Unlabeled glucuronidated ezetimibe ([…]) was used to determine nonspecific binding. The binding reaction was allowed to proceed for 4 hours at 37° C. Subsequently the cell growth media was aspirated and the cells washed once with PBS. The remaining fluorescent labeled glucuronidated ezetimibe bound to the cells was quantified using a FlexStation plate reader (Molecular Devices, Sunnyvale Calif.) to measure fluorescence intensity. Ki values were determined from competition binding curves (n=4 for each point) using Prism and Activity Base software.
# [2] = target: NPC1L1 (Rattus norvegicus, UniProt Q6T3U3); assay: NPC1L1 binding assay (BODIPY-labeled glucuronidated ezetimibe competition), rat
Ki [1],Ki [2],Structure (SMILES)
2.12 µM,1.52 µM,O=C(Nc1c(Cl)cccc1Cl)N1CCC2(CC1)C(=O)N(c1ccccc1)C2c1ccccc1 (stereo not shown)
10.1 µM,5.95 µM,Cc1cccc(Cl)c1NC(=O)N1CCC2(CC1)C(=O)N(c1ccc(F)cc1)C2c1ccc(Cl)cc1 (stereo not shown)
6.41 µM,4.84 µM,O=C(Nc1c(Cl)cccc1Cl)N1CCC2(CC1)C(=O)N(c1ccc(F)cc1)C2c1ccc(Cl)cc1 (stereo not shown)
1.57 µM,0.782 µM,"O=C(Nc1c(Cl)cccc1Cl)N1CCC2(CC1)C(=O)N(c1ccccc1)C2c1ccccc1 (single isomer, unassigned) [drawing 666]"
17.6 µM,18 µM,"O=C(Nc1c(Cl)cccc1Cl)N1CCC2(CC1)C(=O)N(c1ccccc1)C2c1ccccc1 (single isomer, unassigned) [drawing 667]"
